Among the data in ChEMBL document CHEMBL4732227, “Discovery of a novel potent cytochrome P450 CYP4Z1 inhibitor” (Eur J Med Chem, 2021) are inhibition and IC50 values, retold here.

Series [1] addresses T1, Cytochrome P450 4Z1 (Homo sapiens, UniProt Q86W10).
T1 sequence (Q86W10 whole entry): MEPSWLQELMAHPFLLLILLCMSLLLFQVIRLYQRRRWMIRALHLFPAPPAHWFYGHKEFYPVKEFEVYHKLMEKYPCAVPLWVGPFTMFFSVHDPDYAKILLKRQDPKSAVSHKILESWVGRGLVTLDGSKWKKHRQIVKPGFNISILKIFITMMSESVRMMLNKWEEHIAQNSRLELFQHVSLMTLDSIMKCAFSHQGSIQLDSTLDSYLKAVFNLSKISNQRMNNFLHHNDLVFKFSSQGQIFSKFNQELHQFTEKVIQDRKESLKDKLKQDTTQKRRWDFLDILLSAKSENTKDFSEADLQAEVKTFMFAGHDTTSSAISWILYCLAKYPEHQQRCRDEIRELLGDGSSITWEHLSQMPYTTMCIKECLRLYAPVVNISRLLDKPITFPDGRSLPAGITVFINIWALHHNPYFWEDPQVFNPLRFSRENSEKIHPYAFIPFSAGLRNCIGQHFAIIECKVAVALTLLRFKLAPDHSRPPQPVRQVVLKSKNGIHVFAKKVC
The experiment in a line: Inhibition of human CYP4Z1 expressed in permeabilized fission AZ3 yeast cells at 100 nM using luciferin-3FBE as substrate incubated for 3 hrs by luminescence based enzyme bag assay relative to control. The series is classed as cell-based.

Series [2] concerns the target T1, Cytochrome P450 4Z1. The experiment in a line: Inhibition of human CYP4Z1 overexpressed in human MCF7 cells at 1 uM using luciferin-3FBE as substrate incubated for 24 hrs followed by substrate addition by luminescence based assay relative to control. The class given is cell-based.
Series [3] deals with T1, Cytochrome P450 4Z1. The experiment in a line: Inhibition of human CYP4Z1 overexpressed in human MCF7 cells using luciferin-BE as substrate incubated for 24 hrs followed by substrate addition by luminescence based assay. The series is classed as cell-based.
For series [4], the target named is T1, Cytochrome P450 4Z1. The experiment in a line: Inhibition of human CYP4Z1 overexpressed in human MCF7 cells using luciferin-3FBE as substrate incubated for 24 hrs followed by substrate addition by luminescence based assay. The series is classed as cell-based.
The target of another series is T2, CYP1A2 (Homo sapiens, UniProt P05177).
T2 sequence (P05177 whole entry): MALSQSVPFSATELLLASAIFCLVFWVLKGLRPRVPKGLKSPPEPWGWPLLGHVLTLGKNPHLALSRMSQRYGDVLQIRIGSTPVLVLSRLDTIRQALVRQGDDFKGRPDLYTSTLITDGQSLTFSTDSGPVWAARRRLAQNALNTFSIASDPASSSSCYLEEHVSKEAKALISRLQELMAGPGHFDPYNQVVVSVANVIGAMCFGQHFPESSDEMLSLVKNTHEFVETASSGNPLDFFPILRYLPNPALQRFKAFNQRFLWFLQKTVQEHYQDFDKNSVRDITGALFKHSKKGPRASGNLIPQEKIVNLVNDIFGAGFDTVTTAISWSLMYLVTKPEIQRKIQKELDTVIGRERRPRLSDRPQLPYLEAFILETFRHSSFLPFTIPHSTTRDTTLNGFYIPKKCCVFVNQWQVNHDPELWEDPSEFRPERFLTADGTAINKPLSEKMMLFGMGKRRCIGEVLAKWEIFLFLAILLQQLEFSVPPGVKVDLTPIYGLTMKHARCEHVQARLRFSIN
As to the kind of experiment: Inhibition of human CYP1A2 at 1 uM using luciferin-ME as substrate by enzyme bag based one point inhibition assay relative to control. To be noted: enzyme bags, probe luciferin-ME. The series is classed as ADME.

Another series concerns the target CYP2D6 (Homo sapiens, UniProt P10635). The experiment in a line: Inhibition of human CYP2D6 at 1 uM using luciferin-MEEGE as substrate by enzyme bag based one point inhibition assay relative to control. The class given is ADME. To be noted: enzyme bags, probe luciferin-MEEGE.
The next series deals with CYP2C19 (Homo sapiens, UniProt P33261). As to the kind of experiment: Inhibition of human CYP2C19 at 1 uM using luciferin-HEGE as substrate by enzyme bag based one point inhibition assay relative to control. The class given is ADME. Particulars: enzyme bags, probe luciferin-HEGE.
CYP2C19, sequence (P33261 whole entry): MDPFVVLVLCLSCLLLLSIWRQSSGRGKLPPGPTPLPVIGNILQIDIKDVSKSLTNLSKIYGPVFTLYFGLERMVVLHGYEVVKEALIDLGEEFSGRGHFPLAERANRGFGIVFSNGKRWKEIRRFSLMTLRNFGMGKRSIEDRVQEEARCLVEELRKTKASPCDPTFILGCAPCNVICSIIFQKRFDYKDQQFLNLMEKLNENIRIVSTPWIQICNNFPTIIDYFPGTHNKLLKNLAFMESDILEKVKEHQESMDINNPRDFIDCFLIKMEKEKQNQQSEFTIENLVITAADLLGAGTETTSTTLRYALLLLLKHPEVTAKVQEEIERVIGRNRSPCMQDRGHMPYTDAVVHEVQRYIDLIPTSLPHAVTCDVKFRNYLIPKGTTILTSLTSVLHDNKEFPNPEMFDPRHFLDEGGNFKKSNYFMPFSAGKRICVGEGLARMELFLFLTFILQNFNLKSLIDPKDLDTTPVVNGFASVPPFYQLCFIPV
The target of another series is CYP2C9 (Homo sapiens, UniProt P11712). The experiment in a line: Inhibition of human CYP2C9 at 1 uM using luciferin-H as substrate by enzyme bag based one point inhibition assay relative to control. The class given is ADME. To be noted: enzyme bags, probe luciferin-H.
CYP2C9, sequence (P11712 whole entry): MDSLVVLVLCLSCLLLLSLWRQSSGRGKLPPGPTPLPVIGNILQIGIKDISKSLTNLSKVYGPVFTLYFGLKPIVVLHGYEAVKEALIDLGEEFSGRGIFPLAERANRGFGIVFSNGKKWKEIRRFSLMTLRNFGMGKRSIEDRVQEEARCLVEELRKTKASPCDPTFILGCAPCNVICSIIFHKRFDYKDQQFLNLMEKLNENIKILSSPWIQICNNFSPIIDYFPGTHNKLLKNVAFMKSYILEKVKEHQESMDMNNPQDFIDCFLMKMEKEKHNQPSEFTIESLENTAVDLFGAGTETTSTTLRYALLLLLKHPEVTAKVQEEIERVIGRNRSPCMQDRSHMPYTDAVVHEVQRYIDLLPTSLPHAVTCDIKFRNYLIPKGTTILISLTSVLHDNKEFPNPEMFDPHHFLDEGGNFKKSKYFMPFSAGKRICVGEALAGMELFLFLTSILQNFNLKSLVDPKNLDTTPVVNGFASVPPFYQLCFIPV
The next series deals with CYP3A4 (Homo sapiens, UniProt P08684). As to the kind of experiment: Inhibition of human CYP3A4 at 1 uM using luciferin-BE as substrate by enzyme bag based one point inhibition assay relative to control. The class given is ADME. Particulars: enzyme bags, probe luciferin-BE.
CYP3A4, sequence (P08684 whole entry): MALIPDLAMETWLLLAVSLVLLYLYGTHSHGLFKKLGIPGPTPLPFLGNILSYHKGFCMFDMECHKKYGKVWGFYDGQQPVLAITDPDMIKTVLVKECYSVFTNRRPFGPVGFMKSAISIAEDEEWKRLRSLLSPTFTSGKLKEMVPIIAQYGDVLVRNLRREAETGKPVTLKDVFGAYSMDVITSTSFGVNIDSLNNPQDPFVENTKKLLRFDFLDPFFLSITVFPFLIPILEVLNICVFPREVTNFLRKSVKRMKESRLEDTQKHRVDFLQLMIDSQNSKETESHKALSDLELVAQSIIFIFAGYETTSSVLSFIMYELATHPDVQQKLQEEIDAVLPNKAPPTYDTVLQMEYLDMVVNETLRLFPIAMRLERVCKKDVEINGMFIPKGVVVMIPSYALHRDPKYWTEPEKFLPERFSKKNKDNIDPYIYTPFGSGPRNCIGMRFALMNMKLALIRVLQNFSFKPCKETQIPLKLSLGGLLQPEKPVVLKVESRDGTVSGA
The next series deals with CYP2E1 (Homo sapiens, UniProt P05181). The experiment in a line: Inhibition of human CYP2E1 at 1 uM using luciferin-ME as substrate by enzyme bag based one point inhibition assay relative to control. Particulars: enzyme bags, probe luciferin-ME. The series is classed as ADME.
CYP2E1, sequence (P05181 whole entry): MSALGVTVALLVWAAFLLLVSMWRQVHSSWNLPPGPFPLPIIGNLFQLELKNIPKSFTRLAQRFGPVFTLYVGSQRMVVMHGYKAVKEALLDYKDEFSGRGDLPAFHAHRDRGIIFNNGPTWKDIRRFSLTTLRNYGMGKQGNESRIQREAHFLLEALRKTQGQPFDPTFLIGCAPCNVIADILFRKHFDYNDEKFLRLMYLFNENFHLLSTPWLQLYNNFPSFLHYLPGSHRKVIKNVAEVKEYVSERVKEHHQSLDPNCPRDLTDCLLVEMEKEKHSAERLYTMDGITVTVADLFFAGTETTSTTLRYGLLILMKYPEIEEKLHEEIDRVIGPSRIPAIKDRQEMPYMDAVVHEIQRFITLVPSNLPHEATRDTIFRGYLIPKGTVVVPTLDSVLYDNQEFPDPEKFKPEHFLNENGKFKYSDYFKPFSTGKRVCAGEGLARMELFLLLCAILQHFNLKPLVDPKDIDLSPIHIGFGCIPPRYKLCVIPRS

CYP2D6, sequence (P10635 whole entry): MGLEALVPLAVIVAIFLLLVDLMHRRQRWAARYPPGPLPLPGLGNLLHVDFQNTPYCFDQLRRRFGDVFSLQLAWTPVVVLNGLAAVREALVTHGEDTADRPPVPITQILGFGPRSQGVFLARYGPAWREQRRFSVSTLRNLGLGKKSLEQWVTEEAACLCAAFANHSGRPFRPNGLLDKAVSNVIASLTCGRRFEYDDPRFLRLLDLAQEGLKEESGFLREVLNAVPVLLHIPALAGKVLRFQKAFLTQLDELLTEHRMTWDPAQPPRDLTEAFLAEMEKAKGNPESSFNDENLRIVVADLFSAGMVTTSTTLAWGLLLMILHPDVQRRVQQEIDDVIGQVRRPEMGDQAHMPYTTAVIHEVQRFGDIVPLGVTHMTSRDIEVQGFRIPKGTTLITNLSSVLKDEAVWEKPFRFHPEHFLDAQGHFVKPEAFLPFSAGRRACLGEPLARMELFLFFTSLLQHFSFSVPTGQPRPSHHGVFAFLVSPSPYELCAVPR

What is called inhibition is the change of the read-out against control, counted positive when it falls. Broadly, the IC50 is the point on the concentration scale where inhibition reaches its midpoint. Low values mean greater potency, high ones weaker potency. Take `c1ccc(Cn2ccnc2)cc1`: the inhibition at 0.1 µM against Cytochrome P450 4Z1 [1] was 9%. Besides, the inhibition at 1 µM at Cytochrome P450 4Z1 [2] was found to be 0%. Besides, the IC50 is 5.9 µM against Cytochrome P450 4Z1 [3] and 6.7 µM at Cytochrome P450 4Z1 [4].

For the compound `O=C(O)CCC1CCCN(C(=O)c2ccc(Cn3ccnc3)cc2)C1` (stereo unspecified), on Cytochrome P450 4Z1 [1], the inhibition at 0.1 µM was found to be 1%. In addition, the inhibition at 1 µM against Cytochrome P450 4Z1 [2] came to 12%.

Turning to `CC1CCN(C(=O)c2cccc(OCC(=O)O)c2)CC1n1ccnc1` (stereo unspecified), the inhibition at 0.1 µM at Cytochrome P450 4Z1 [1] is 13%. Besides, the inhibition at 1 µM against Cytochrome P450 4Z1 [2] was determined as 22%.

As for `Cn1cnc2cc(C(=O)Nc3ccc(Oc4nn[nH]n4)cc3)ccc21`, on Cytochrome P450 4Z1 [1], the inhibition at 0.1 µM came out at 5%. The inhibition at 1 µM against Cytochrome P450 4Z1 [2] was 10%.

On to `O=C(O)c1cccc(CNC(=O)c2ccc(-n3ccnc3)cc2)c1`, for which the inhibition at 1 µM is 2.7% against CYP1A2; -5.8% at CYP2D6; 1.4% against CYP2C19; 82% at Cytochrome P450 4Z1 [2]; -0.2% against CYP2C9; 12% at CYP3A4. Further, on CYP2E1, the inhibition at 1 µM is 54%. In addition, the inhibition at 0.1 µM against Cytochrome P450 4Z1 [1] is 36%. At Cytochrome P450 4Z1 [4], this compound returned an IC50 of 0.063 µM.

As for `O=C(O)/C=C/c1ccc(Cn2ccnc2)cc1` [OZAGREL], the inhibition at 0.1 µM at Cytochrome P450 4Z1 [1] was determined as 21%. On Cytochrome P450 4Z1 [2], the inhibition at 1 µM came to 24%.
